Values quoted from earlier work, collected in patent US20060024344A1 (priority 2004, published 2006).
Entries after “also recorded” stand apart in the source; their conditions may differ.

Assays:
Details in all cases: in vivo
[1] = system: sharks
[2] = system: sharks; remark: listed apart in the source
[3] = system: fish in schoold
[4] = system: rainbow trout, blugill and channel catfish
[5] = system: sharks; remark: listed apart in the source
[6] = system: captive lemon sharks
[7] = system: human skin
[8] = system: human tongue

Molecule	efficiency to repel sharks [1]	observed effect on fish [3]	further results
magnesium dodecyl sulfate	revealed efficiency to repel sharks		
CCCCCCCCOS(=O)(=O)[O-].[Na+] [sodium octyl sulfate]	revealed efficiency to repel sharks		
CC(=O)OC[C@H](C)CCC[C@@H](C)[C@H]1CCC2C3C(C[C@H](O)[C@@]21C)[C@@]1(C)CC[C@@H](O)C[C@H]1C[C@H]3O[C@@H]1O[C@H](CO)[C@H](O)[C@H](O)[C@H]1O (stereo partly drawn) [mosesin-4]			shark repellent activity [2]: shows shark repellent activity
sodium dodecyl ether sulfate	revealed efficiency to repel sharks		
O=C(CCl)c1ccccc1 [phenacyl chloride]		seriously irritated the eyes and impaired vision	
COc1ccc(O)c(C(C)(C)C)c1 [butylated hydroxyanisole]			toxicity for fishes compared with zebra mussel [4]: substantially greater
CCCCCCCCCCCCCCOS(=O)(=O)[O-].[Na+] [sodium tetradecyl sulfate]	revealed efficiency to repel sharks		
copper acetate			effectivity as a shark deterrent [5]: reduced effectivity as a deterrent
CCCCCCCCCCOS(=O)(=O)[O-].[Na+] [sodium decyl sulfate]	revealed efficiency to repel sharks		
CCCCCCCCCCCCCCCCCCOS(=O)(=O)[O-].[Na+] [sodium octadecyl sulfate]	revealed efficiency to repel sharks		
Oc1ccccc1 [phenol]		strongly stimulated the entire body	
CC1(C)[C@@H]2CC[C@@]1(C)[C@H](OC(=O)CSC#N)C2 [isobornyl thiocyanoacetate]		induced tetanic paralysis	
C=CCN=C=S [allyl isothiocyanate]		strongly stimulated the entire body	
O=S([O-])O.[Na+] [sodium bisulfite]		respiratory impairment	
N#CSCCCCC(Cl)(Cl)Cl [thiocyanic acid 5,5,5-trichloro amyl ester]		flaccid paralysis; also recorded: respiratory impairment	
O=C(CBr)c1ccccc1 [phenacyl bromide]		seriously irritated the eyes and impaired vision	
O=C(OC[C@H]1O[C@@H](OC(=O)c2cc(O)c(O)c(OC(=O)c3cc(O)c(O)c(O)c3)c2)[C@H](OC(=O)c2cc(O)c(O)c(OC(=O)c3cc(O)c(O)c(O)c3)c2)[C@@H](OC(=O)c2cc(O)c(O)c(OC(=O)c3cc(O)c(O)c(O)c3)c2)[C@@H]1OC(=O)c1cc(O)c(O)c(OC(=O)c2cc(O)c(O)c(O)c2)c1)c1cc(O)c(O)c(OC(=O)c2cc(O)c(O)c(O)c2)c1 [tannic acid]			toxicity for fishes compared with zebra mussel [4]: substantially greater
CCCCCCCCCCCCOS(=O)(=O)[O-].[Na+] [sodium dodecyl sulfate]	revealed efficiency to repel sharks		shark repellent effect [6]: strongly repelled sharks
COc1cc(CNC(=O)CCCC/C=C/C(C)C)ccc1O [capsaicin, 8-methyl-n-vanillyl-6-nonenamide]			skin reaction (flare, irritation) [7]: no flare and irritation; skin temperature below which burning pain and hyperaesthesia cease completely [7]: below 28 deg C.; concentration producing perceptible warmth at subcutaneous and intramuscular level ([7]; sc): 10 µg/mL; concentration producing persistent burning at subcutaneous and intramuscular level ([7]; sc): 100 µg/mL; concentration at which detected in humans [8]: 0.1 µg/mL; concentration provoking a sensation of perceptible warmth on tongue [8]: 1 µg/mL; concentration provoking a sensation of persistent burning on tongue [8]: 10 µg/mL
CCS [ethyl mercaptan]		induced tetanic paralysis	
